Source: US20160046618A1, “Cyclopropyl Fused Thiazin-2-Amine Compounds as Beta-Secretase Inhibitors and Methods of Use” (AMGEN INC., priority 2014, published 2016)

Experiments:
[1] = target: human recombinant BACE1 (Homo sapiens (Human), UniProt P56817); assay: In vitro enzymatic BACE1 FRET assay; type: biochemical; details: read-out: IC50 IP (μM) BACE1 enzyme
Procedure, shortened: (§1)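 FRET cleavage assay using Ni-NTA-purified recombinant protease and 50 nM quenched peptide substrate, 1 h. Stopped by neutralising with Tris; fluorescence at 488/590 nm.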

[2] = target: human recombinant BACE2 (Homo sapiens (Human), UniProt Q9Y5Z0); assay: In vitro enzymatic BACE2 FRET assay; type: biochemical; details: read-out: IC50 IP (μM) BACE2 enzyme
Procedure, shortened: as §1

[3] = system: Aβ40 in conditioned medium of cells stably expressing Amyloid Precursor Protein (APP); assay: In vitro BACE-1 cell-based assay (Aβ40 sandwich ELISA); details: read-out: IC50 IP (μM) BACE1 cell
Procedure, shortened: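 APP-stable cells, pre-cultured 24 h at 37° C in DMEM/10% FBS, were treated 24 h with compound in a 10-point series starting at 100 μM or 10 μM (0.1% DMSO final). Secreted Aβ40 in conditioned medium was measured by pAb40/biotin-6E10 sandwich ELISA with Europium time-resolved fluorescence; IC50 from percent inhibition versus concentration.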

[4] = target: Recombinant Cat D (Homo sapiens (Human), UniProt P07339); assay: In vitro enzymatic Cathepsin D (Cat D) FRET assay; type: biochemical; details: read-out: IC50 IP (μM) CatD
Procedure, shortened: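 Recombinant Cat D expressed in CHO cells, assayed in 0.05 M citrate pH 3.5 with 5 mM CHAPS and 10% DMSO final. Reaction started with 20 nM FRET peptide substrate, incubated one hour, then stopped by Tris buffer to neutral pH; fluorescence read at ex 500/em 580 nm.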

Sequence of Recombinant Cat D (P07339 65-412): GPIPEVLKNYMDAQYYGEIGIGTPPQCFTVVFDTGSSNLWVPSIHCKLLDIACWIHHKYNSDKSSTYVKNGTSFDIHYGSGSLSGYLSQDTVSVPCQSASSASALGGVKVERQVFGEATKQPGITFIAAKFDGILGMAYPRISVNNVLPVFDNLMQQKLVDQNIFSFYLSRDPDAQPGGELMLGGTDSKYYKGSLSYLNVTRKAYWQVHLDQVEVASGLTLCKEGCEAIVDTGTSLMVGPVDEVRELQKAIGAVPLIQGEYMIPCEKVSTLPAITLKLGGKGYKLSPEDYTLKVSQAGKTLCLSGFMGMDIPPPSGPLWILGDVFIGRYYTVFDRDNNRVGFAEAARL
Sequence of human recombinant BACE2 (Q9Y5Z0 63-518): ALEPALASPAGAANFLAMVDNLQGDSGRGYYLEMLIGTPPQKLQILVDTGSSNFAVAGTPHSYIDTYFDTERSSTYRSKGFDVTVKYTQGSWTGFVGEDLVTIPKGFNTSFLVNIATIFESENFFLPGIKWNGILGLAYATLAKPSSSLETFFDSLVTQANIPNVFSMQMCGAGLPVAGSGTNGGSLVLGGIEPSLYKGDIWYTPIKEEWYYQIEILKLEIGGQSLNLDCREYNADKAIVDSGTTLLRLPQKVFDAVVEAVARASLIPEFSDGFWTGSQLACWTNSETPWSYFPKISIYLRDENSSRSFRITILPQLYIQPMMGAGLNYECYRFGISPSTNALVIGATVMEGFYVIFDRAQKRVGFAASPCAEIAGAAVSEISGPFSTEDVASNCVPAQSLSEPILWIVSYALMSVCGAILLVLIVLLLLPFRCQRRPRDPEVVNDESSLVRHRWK
Sequence of human recombinant BACE1 (P56817 46-501): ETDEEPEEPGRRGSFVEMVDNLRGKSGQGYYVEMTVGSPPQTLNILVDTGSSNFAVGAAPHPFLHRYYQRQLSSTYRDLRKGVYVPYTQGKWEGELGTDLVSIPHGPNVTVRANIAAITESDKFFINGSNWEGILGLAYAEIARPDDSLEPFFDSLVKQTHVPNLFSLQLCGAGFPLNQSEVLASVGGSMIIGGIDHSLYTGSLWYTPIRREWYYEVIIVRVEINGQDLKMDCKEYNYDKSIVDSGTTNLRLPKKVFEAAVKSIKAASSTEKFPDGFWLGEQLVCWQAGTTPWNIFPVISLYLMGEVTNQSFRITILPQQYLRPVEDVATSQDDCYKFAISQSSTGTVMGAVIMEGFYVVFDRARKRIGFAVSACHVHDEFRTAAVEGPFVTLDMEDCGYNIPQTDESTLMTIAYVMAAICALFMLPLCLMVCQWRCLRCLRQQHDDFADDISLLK

| Structure (SMILES) | IC50 [1] [µM] | IC50 [2] [µM] | IC50 [3] [µM] | IC50 [4] [µM] |
| --- | --- | --- | --- | --- |
| CC#CCCOc1cnc(C(=O)Nc2ccc(F)c([C@@]3(C)N=C(N)S[C@@]4(COC)C[C@H]43)c2)cn1 [Example 1047, N-(3-((1S,5S,6S)-3-amino-1-(methoxymethyl)-5-methyl-2-thia-4-azabicyclo[4.1.0]hept-3-en-5-yl)-4-fluorophenyl)-5-(3-pentyn-1-yloxy)-2-pyrazinecarboxamide] | 0.0054 | 0.189 | 0.015 | > 400 |
| COC[C@]12C[C@H]1[C@@](C)(c1cc(NC(=O)c3cnc(OCC4(C)CC4)cn3)ccc1F)N=C(N)S2 [Example 1049, N-(3-((1S,5S,6S)-3-amino-1-(methoxymethyl)-5-methyl-2-thia-4-azabicyclo[4.1.0]hept-3-en-5-yl)-4-fluorophenyl)-5-((1-methylcyclopropyl)methoxy)-2-pyrazinecarboxamide] | 0.0054 | 0.18 | 0.0035 | > 400 |
| COC[C@]12C[C@H]1[C@@](C)(c1cc(NC(=O)c3cnc(OCC4(C)COC4)cn3)ccc1F)N=C(N)S2 [Example 1050, N-(3-((1S,5S,6S)-3-amino-1-(methoxymethyl)-5-methyl-2-thia-4-azabicyclo[4.1.0]hept-3-en-5-yl)-4-fluorophenyl)-5-((3-methyl-3-oxetanyl)methoxy)-2-pyrazinecarboxamide] | 0.03 | 1.19 | 0.035 | > 400 |
| COC[C@]12C[C@H]1[C@@](C)(c1cc(NC(=O)c3cnc(OCCF)cn3)ccc1F)N=C(N)S2 [Example 1052, N-(3-((1S,5S,6S)-3-amino-1-(methoxymethyl)-5-methyl-2-thia-4-azabicyclo[4.1.0]hept-3-en-5-yl)-4-fluorophenyl)-5-(2-fluoroethoxy)-2-pyrazinecarboxamide] | 0.016 | 0.146 | 0.0083 | > 400 |
| COC[C@]12C[C@H]1[C@@](C)(c1cc(NC(=O)c3cnc(OCC4CC4)cn3)ccc1F)N=C(N)S2 [Example 1053, N-(3-((1S,5S,6S)-3-amino-1-(methoxymethyl)-5-methyl-2-thia-4-azabicyclo[4.1.0]hept-3-en-5-yl)-4-fluorophenyl)-5-(cyclopropylmethoxy)-2-pyrazinecarboxamide] | 0.0059 | 0.108 | 0.0029 | 1420 |
| COC[C@]12C[C@H]1[C@@](C)(c1cc(NC(=O)c3cnc(OCC4CCC4)cn3)ccc1F)N=C(N)S2 [Example 1054, N-(3-((1S,5S,6S)-3-amino-1-(methoxymethyl)-5-methyl-2-thia-4-azabicyclo[4.1.0]hept-3-en-5-yl)-4-fluorophenyl)-5-(cyclobutylmethoxy)-2-pyrazinecarboxamide] | 0.0014 | 0.171 | 0.011 | 862 |
| COC[C@]12C[C@H]1[C@@](C)(c1cc(NC(=O)c3cnc(OCC4COC4)cn3)ccc1F)N=C(N)S2 [Example 1055, N-(3-((1S,5S,6S)-3-amino-1-(methoxymethyl)-5-methyl-2-thia-4-azabicyclo[4.1.0]hept-3-en-5-yl)-4-fluorophenyl)-5-(3-oxetanylmethoxy)-2-pyrazinecarboxamide] | 0.0079 | 0.498 | 0.022 | 1330 |
| COC[C@]12C[C@H]1[C@@](C)(c1cc(NC(=O)c3cnc(OCC(C)C)cn3)ccc1F)N=C(N)S2 [Example 1056, N-(3-((1S,5S,6S)-3-amino-1-(methoxymethyl)-5-methyl-2-thia-4-azabicyclo[4.1.0]hept-3-en-5-yl)-4-fluorophenyl)-5-(2-methylpropoxy)-2-pyrazinecarboxamide] | 0.0014 | 0.317 | 0.018 | 1240 |
| COC[C@]12C[C@H]1[C@@](C)(c1cc(NC(=O)c3cnc(OCC(F)F)cn3)ccc1F)N=C(N)S2 [Example 1057, N-(3-((1S,5S,6S)-3-amino-1-(methoxymethyl)-5-methyl-2-thia-4-azabicyclo[4.1.0]hept-3-en-5-yl)-4-fluorophenyl)-5-(2,2-difluoroethoxy)-2-pyrazinecarboxamide] | 0.0023 | 0.158 | 0.0033 | > 400 |
| COC[C@]12C[C@H]1[C@@](C)(c1cc(NC(=O)c3cnc(OCC4CCO4)cn3)ccc1F)N=C(N)S2 (stereo partly drawn) [Example 1058, N-(3-((1S,5S,6S)-3-amino-1-(methoxymethyl)-5-methyl-2-thia-4-azabicyclo[4.1.0]hept-3-en-5-yl)-4-fluorophenyl)-5-(oxetan-2-ylmethoxy)pyrazine-2-carboxamide] | > 0.016 | 0.498 | 0.01 | > 400 |
| CC#CCCOc1cnc(C(=O)Nc2cc(F)c(F)c([C@@]3(C)N=C(N)S[C@@]4(COC)C[C@H]43)c2)cn1 [Example 1059, N-(3-((1S,5S,6S)-3-amino-1-(methoxymethyl)-5-methyl-2-thia-4-azabicyclo[4.1.0]hept-3-en-5-yl)-4,5-difluorophenyl)-5-(3-pentyn-1-yloxy)-2-pyrazinecarboxamide] | 0.011 | 0.069 | 0.02 | 1320 |
| C#CCCOc1cnc(C(=O)Nc2cc(F)c(F)c([C@@]3(C)N=C(N)S[C@@]4(COC)C[C@H]43)c2)cn1 [Example 1060, N-(3-((1S,5S,6S)-3-amino-1-(methoxymethyl)-5-methyl-2-thia-4-azabicyclo[4.1.0]hept-3-en-5-yl)-4,5-difluorophenyl)-5-(3-butyn-1-yloxy)-2-pyrazinecarboxamide] | 0.0074 | 0.13 | 0.0076 | > 400 |
| COC[C@]12C[C@H]1[C@@](C)(c1cc(NC(=O)c3cnc(OCC4(C)CC4)cn3)cc(F)c1F)N=C(N)S2 [Example 1061, N-(3-((1S,5S,6S)-3-amino-1-(methoxymethyl)-5-methyl-2-thia-4-azabicyclo[4.1.0]hept-3-en-5-yl)-4,5-difluorophenyl)-5-((1-methylcyclopropyl)methoxy)-2-pyrazinecarboxamide] | 0.0047 | 0.17 | 0.0039 | > 400 |
| COC[C@]12C[C@H]1[C@@](C)(c1cc(NC(=O)c3cnc(OCC4(C)COC4)cn3)cc(F)c1F)N=C(N)S2 [Example 1062, N-(3-((1S,5S,6S)-3-amino-1-(methoxymethyl)-5-methyl-2-thia-4-azabicyclo[4.1.0]hept-3-en-5-yl)-4,5-difluorophenyl)-5-((3-methyl-3-oxetanyl)methoxy)-2-pyrazinecarboxamide] | > 16 | 0.658 | 0.022 | > 400 |
| COC[C@]12C[C@H]1[C@@](C)(c1cc(NC(=O)c3cnc(OCCF)cn3)cc(F)c1F)N=C(N)S2 [Example 1064, N-(3-((1S,5S,6S)-3-amino-1-(methoxymethyl)-5-methyl-2-thia-4-azabicyclo[4.1.0]hept-3-en-5-yl)-4,5-difluorophenyl)-5-(2-fluoroethoxy)-2-pyrazinecarboxamide] | 0.0027 | 0.081 | 0.0047 | > 400 |
| COC[C@]12C[C@H]1[C@@](C)(c1cc(NC(=O)c3cnc(OCC(F)(F)F)cn3)cc(C)c1F)N=C(N)S2 [Example 1065, N-(3-((1S,5S,6S)-3-amino-1-(methoxymethyl)-5-methyl-2-thia-4-azabicyclo[4.1.0]hept-3-en-5-yl)-4-fluoro-5-methylphenyl)-5-(2,2,2-trifluoroethoxy)-2-pyrazinecarboxamide] | 0.000256 | 0.0636 | 0.00294 | 1580 |
| COC[C@]12C[C@H]1[C@@](C)(c1cc(NC(=O)c3ccc(Cl)cn3)cc(C)c1F)N=C(N)S2 [Example 1066, N-(3-((1S,5S,6S)-3-amino-1-(methoxymethyl)-5-methyl-2-thia-4-azabicyclo[4.1.0]hept-3-en-5-yl)-4-fluoro-5-methylphenyl)-5-chloro-2-pyridinecarboxamide] | 0.00161 | 0.00099 | 0.00347 | > 400 |
| COC[C@]12C[C@H]1[C@@](C)(c1cc(NC(=O)c3cnc(OC4COC4)cn3)ccc1F)N=C(N)S2 [Example 1067, N-(3-((1S,5S,6S)-3-amino-1-(methoxymethyl)-5-methyl-2-thia-4-azabicyclo[4.1.0]hept-3-en-5-yl)-4-fluorophenyl)-5-(oxetan-3-yloxy)pyrazine-2-carboxamide] | 0.0264 | 1.63 | 0.0238 | 2050 |
| COC[C@]12C[C@H]1[C@@](C)(c1cc(NC(=O)c3cnc(OCC(C)(C)C)cn3)cc(F)c1F)N=C(N)S2 [Example 1069, N-(3-((1S,5S,6S)-3-amino-1-(methoxymethyl)-5-methyl-2-thia-4-azabicyclo[4.1.0]hept-3-en-5-yl)-4,5-difluorophenyl)-5-(neopentyloxy)pyrazine-2-carboxamide] | 0.0174 | 0.878 | 0.214 | 1060 |
